# Test results published in publication PMC12888861, “Antibacterial activity of enmetazobactam against Acinetobacter spp.: a molecular dissection of mechanism of action and resistance determinants” (Antimicrobial Agents and Chemotherapy, 2025).
# pIC50: −log10 of the molar value.
# Legend:
# [1] = tested on: carbapenem-resistant A. baumannii (CRAB) isolates (n = 67); test: MIC, broth microdilution (EUCAST), carbapenem-resistant A. baumannii isolates; assay type: cell-based, Acinetobacter baumannii; settings: for MIC: Acinetobacter baumannii
# Source text: The bacterial strains used in this study comprised 208 clinical isolates from the Spanish National Acinetobacter spp. 2020 Multicenter Collection, which was previously characterized in detail by our research group, including whole-genome sequencing, phylogenetics studies, clonal dynamics, and resistance mechanisms ([2], [29]). Additionally, a collection of A. baumannii ATCC 17978 transformants coding the blaOXA-23, blaOXA-24/40, blaOXA-51, blaOXA-58, blaOXA-143, and blaOXA-201 genes, previously constructed and described by our group ([30]), was used to determine the activity of enmetazobactam against strains carrying the main CHDLs of A. baumannii.
# The antimicrobial susceptibility of the 208 Acinetobacter spp. isolates was assessed using the broth microdilution method, as described in the European Committee on Antimicrobial Susceptibility Testing (EUCAST) v.15 guidelines (http://www.eucast.org/clinical_breakpoints). […] MICs for enmetazobactam alone were assessed as well. […] Subsequently, MIC testing was also conducted with a collection of A. baumannii ATCC 17978 transformants expressing clinically relevant OXA-like carbapenemase genes.
# The A. baumannii ATCC 19606 strain was used as the reference strain in all susceptibility experiments, in duplicate assays. Antibiotics were purchased from Sigma-Aldrich, except enmetazobactam and durlobactam, which were obtained from Advanz Pharma and MedChemExpress, respectively.
# PBP2 = target: T1, PBP2 (Acinetobacter baumannii, UniProt D0C8Z9); test: PBP-binding assay, Bocillin FL competition, membrane preparations; settings: IC50 (binding affinity) PBP2, membrane preparations, A. baumannii ATCC 19606
# T1 construct: endogenous in cells; host or cells: A. baumannii ATCC 19606 membrane fraction
# Procedure: (§1) The possible involvement of A. baumannii PBPs as enmetazobactam targets was evaluated. […] The PBP-binding IC50 was determined in membrane preparations from three independent experiments, following previously described protocols ([13]).
# (§2) Briefly, A. baumannii cultures were grown in Mueller-Hinton broth at 37°C with shaking at 180 rpm, and 400 mL were collected in late log phase (OD₆₀₀nm= 1), washed, and resuspended in 20 mM KH₂PO₄ and 140 mM NaCl (pH 7.5). After sonication, bacterial membranes were isolated by ultracentrifugation (150,000 g, 30 min). […] The Bocillin FL signal is inversely proportional to the binding capacity of the compounds tested to PBPs ([35]). The PBPs were separated by SDS-PAGE (Bio-Rad) and visualized with Odyssey M Imager (LI-COR). The IC₅₀ values were calculated using Empiria Studio software (LI-COR). The binding affinity was determined by comparing the change of the fluorescence in the presence or absence of the tested sulfones.
# PBP3 = PBP3 (Acinetobacter baumannii, UniProt A0ABX6CK25); test: as above; settings: A. baumannii ATCC 19606, read-out: IC50 (binding affinity) PBP3 (converted)
# Procedure: as §1, §2
# PBP1a = PBP1a (Acinetobacter baumannii, UniProt A0ABX6CK30); test: as above; settings: A. baumannii ATCC 19606, read-out: IC50 (binding affinity) PBP1a
# Procedure: as §1, §2
# PBP1b = PBP1b (Acinetobacter baumannii, UniProt A0ABX6CHI7); test: as above; settings: A. baumannii ATCC 19606, read-out: IC50 (binding affinity) PBP1b (converted)
# Procedure: as §1, §2
# [2] = CHDLs-producing A. baumannii isolates (n = 67), durlobactam series, DUR fixed 4 mg/L in combinations
# T1 sequence (D0C8Z9 whole entry): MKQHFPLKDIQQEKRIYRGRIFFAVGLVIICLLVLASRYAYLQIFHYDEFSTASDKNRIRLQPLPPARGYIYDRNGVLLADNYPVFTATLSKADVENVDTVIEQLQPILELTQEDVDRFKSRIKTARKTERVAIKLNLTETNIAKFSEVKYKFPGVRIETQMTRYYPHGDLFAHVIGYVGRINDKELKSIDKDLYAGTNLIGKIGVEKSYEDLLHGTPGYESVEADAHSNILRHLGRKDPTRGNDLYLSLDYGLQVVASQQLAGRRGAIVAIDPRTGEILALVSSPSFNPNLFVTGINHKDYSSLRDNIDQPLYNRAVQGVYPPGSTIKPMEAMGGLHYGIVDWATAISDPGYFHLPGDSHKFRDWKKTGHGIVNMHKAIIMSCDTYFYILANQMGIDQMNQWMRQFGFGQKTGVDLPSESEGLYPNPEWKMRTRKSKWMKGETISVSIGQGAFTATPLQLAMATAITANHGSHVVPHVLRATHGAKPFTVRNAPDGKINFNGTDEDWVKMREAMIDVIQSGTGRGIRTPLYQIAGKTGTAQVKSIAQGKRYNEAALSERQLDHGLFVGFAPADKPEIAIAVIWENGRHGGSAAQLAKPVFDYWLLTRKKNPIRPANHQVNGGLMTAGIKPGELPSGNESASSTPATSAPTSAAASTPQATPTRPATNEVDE
# Sequence of PBP1a (A0ABX6CK30 entry or part of it): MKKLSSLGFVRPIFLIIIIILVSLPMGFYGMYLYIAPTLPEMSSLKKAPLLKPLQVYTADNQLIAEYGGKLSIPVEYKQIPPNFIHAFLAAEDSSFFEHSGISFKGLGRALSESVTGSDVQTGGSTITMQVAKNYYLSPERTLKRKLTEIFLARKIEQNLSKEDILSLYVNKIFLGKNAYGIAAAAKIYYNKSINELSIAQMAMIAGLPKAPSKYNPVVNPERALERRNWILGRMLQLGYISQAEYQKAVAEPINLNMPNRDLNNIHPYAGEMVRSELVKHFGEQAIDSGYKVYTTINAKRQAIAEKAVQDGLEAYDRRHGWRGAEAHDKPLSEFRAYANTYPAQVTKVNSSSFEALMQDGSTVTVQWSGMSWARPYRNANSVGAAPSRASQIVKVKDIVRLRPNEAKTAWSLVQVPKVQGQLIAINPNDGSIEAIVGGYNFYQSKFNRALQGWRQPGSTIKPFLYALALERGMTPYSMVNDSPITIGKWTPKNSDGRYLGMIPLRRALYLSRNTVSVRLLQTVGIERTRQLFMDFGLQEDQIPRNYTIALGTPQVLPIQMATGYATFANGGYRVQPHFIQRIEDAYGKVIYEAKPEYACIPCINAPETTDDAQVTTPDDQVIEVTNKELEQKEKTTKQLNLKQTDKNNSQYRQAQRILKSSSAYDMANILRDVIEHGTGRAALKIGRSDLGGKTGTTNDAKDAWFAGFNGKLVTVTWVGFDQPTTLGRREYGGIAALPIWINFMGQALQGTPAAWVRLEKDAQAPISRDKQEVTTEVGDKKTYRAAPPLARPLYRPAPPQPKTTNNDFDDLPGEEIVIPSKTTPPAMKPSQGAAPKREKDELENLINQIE
# Sequence of PBP3 (A0ABX6CK25 entry or part of it): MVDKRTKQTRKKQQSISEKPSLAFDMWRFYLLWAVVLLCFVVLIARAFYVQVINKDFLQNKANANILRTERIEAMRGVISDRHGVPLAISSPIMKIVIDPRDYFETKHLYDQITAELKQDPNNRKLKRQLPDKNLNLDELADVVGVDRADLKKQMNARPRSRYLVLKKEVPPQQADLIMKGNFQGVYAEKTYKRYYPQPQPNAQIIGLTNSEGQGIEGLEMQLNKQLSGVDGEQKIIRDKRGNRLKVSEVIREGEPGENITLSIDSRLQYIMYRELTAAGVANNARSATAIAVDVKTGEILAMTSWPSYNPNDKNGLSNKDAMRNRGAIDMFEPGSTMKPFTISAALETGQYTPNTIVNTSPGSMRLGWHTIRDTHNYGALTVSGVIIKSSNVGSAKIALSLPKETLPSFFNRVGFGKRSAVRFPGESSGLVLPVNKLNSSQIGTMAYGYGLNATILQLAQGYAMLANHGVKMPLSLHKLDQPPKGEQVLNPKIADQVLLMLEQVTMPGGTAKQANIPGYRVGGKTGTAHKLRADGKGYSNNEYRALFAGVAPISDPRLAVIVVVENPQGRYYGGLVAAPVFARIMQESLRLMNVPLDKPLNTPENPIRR
smiles,measurement,setting,value
CC1(C)[C@H](C(=O)O)N2C(=O)C[C@H]2S1(=O)=O [sulbactam],MIC,"[1]; isolate Ab183, ST 2, ADC-30, OXA-66, OXA-23, DUR fixed at 4 mg/L in combinations",8 µg/mL
same,MIC,"[1]; isolate Ab183, ST 2, ADC-30, OXA-66, OXA-23, ETZ fixed 8 mg/L in combinations",8 µg/mL
same,MIC,"[1]; isolate Ab184, ST 2, ADC-30, OXA-66, OXA-23, DUR fixed at 4 mg/L in combinations",16 µg/mL
same,MIC,"[1]; isolate Ab184, ST 2, ADC-30, OXA-66, OXA-23, ETZ fixed 8 mg/L in combinations",16 µg/mL
same,MIC,"[1]; isolate Ab186, ST 2, ADC-30, OXA-66, OXA-23, DUR fixed at 4 mg/L in combinations",16 µg/mL
same,MIC,"[1]; isolate Ab186, ST 2, ADC-30, OXA-66, OXA-23, ETZ fixed 8 mg/L in combinations",16 µg/mL
same,MIC,"[1]; isolate Ab191, ST 2, ADC-30, OXA-66, OXA-23, DUR fixed at 4 mg/L in combinations",16 µg/mL
same,MIC,"[1]; isolate Ab191, ST 2, ADC-30, OXA-66, OXA-23, ETZ fixed 8 mg/L in combinations",16 µg/mL
same,MIC,"[1]; isolate Ab192, ST 2, ADC-30, OXA-66, OXA-23, DUR fixed at 4 mg/L in combinations",16 µg/mL
same,MIC,"[1]; isolate Ab192, ST 2, ADC-30, OXA-66, OXA-23, ETZ fixed 8 mg/L in combinations",16 µg/mL
same,MIC,"[1]; isolate Ab194, ST 2, ADC-30, OXA-66, OXA-23, DUR fixed at 4 mg/L in combinations",16 µg/mL
same,MIC,"[1]; isolate Ab194, ST 2, ADC-30, OXA-66, OXA-23, ETZ fixed 8 mg/L in combinations",16 µg/mL
same,MIC,"[1]; isolate Ab199, ST 2, ADC-30, OXA-66, OXA-23, DUR fixed at 4 mg/L in combinations",16 µg/mL
same,MIC,"[1]; isolate Ab199, ST 2, ADC-30, OXA-66, OXA-23, ETZ fixed 8 mg/L in combinations",16 µg/mL
same,MIC,"[1]; isolate Ab201, ST 2, ADC-30, OXA-66, OXA-23, DUR fixed at 4 mg/L in combinations",16 µg/mL
same,MIC,"[1]; isolate Ab201, ST 2, ADC-30, OXA-66, OXA-23, ETZ fixed 8 mg/L in combinations",16 µg/mL
same,MIC,"[1]; isolate Ab204, ST 2, ADC-30, OXA-66, OXA-23, DUR fixed at 4 mg/L in combinations",16 µg/mL
same,MIC,"[1]; isolate Ab204, ST 2, ADC-30, OXA-66, OXA-23, ETZ fixed 8 mg/L in combinations",8 µg/mL
same,MIC50,[1]; [2],16 µg/mL
same,MIC90,[1]; [2],32 µg/mL
same,MIC distribution 0.12,"[1]; cumulative % of CHDLs-producing A. baumannii isolates (n = 67) at MIC 0.12 mg/L, DUR fixed 4 mg/L in combinations",0.0%
same,MIC distribution 0.25,"[1]; cumulative % of CHDLs-producing A. baumannii isolates (n = 67) at MIC 0.25 mg/L, DUR fixed 4 mg/L in combinations",0.0%
same,MIC distribution 0.5,"[1]; cumulative % of CHDLs-producing A. baumannii isolates (n = 67) at MIC 0.5 mg/L, DUR fixed 4 mg/L in combinations",0.0%
same,MIC distribution 1,"[1]; cumulative % of CHDLs-producing A. baumannii isolates (n = 67) at MIC 1 mg/L, DUR fixed 4 mg/L in combinations",0.0%
same,MIC distribution 2,"[1]; cumulative % of CHDLs-producing A. baumannii isolates (n = 67) at MIC 2 mg/L, DUR fixed 4 mg/L in combinations",13.4%
same,MIC distribution 4,"[1]; cumulative % of CHDLs-producing A. baumannii isolates (n = 67) at MIC 4 mg/L, DUR fixed 4 mg/L in combinations",20.9%
same,MIC distribution 8,"[1]; cumulative % of CHDLs-producing A. baumannii isolates (n = 67) at MIC 8 mg/L, DUR fixed 4 mg/L in combinations",34.3%
same,MIC distribution 16,"[1]; cumulative % of CHDLs-producing A. baumannii isolates (n = 67) at MIC 16 mg/L, DUR fixed 4 mg/L in combinations",89.6%
same,MIC distribution 32,"[1]; cumulative % of CHDLs-producing A. baumannii isolates (n = 67) at MIC 32 mg/L, DUR fixed 4 mg/L in combinations",100%
same,MIC distribution 0.12,"[1]; cumulative share of CRAB isolates (n = 67) at MIC 0.12 mg/L, ETZ fixed 8 mg/L in combinations",0
same,MIC distribution 0.25,"[1]; cumulative share of CRAB isolates (n = 67) at MIC 0.25 mg/L, ETZ fixed 8 mg/L in combinations",0
same,MIC distribution 0.5,"[1]; cumulative share of CRAB isolates (n = 67) at MIC 0.5 mg/L, ETZ fixed 8 mg/L in combinations",0
same,MIC distribution 1,"[1]; cumulative share of CRAB isolates (n = 67) at MIC 1 mg/L, ETZ fixed 8 mg/L in combinations",0
same,MIC distribution 2,"[1]; cumulative share of CRAB isolates (n = 67) at MIC 2 mg/L, ETZ fixed 8 mg/L in combinations",14.9
same,MIC distribution 4,"[1]; cumulative share of CRAB isolates (n = 67) at MIC 4 mg/L, ETZ fixed 8 mg/L in combinations",17.9
same,MIC distribution 8,"[1]; cumulative share of CRAB isolates (n = 67) at MIC 8 mg/L, ETZ fixed 8 mg/L in combinations",34.3
same,MIC distribution 16,"[1]; cumulative share of CRAB isolates (n = 67) at MIC 16 mg/L, ETZ fixed 8 mg/L in combinations",89.6
same,MIC distribution 32,"[1]; cumulative share of CRAB isolates (n = 67) at MIC 32 mg/L, ETZ fixed 8 mg/L in combinations",100
same,MIC distribution 64,"[1]; cumulative share of CRAB isolates (n = 67) at MIC 64 mg/L, ETZ fixed 8 mg/L in combinations",100
same,pIC50,PBP2,< 3.56
same,IC50,PBP3,9.73 µM
same,pIC50,PBP1a,< 3.56
same,IC50,PBP1b,9.6 µM
